According to ChEMBL document CHEMBL5550126, “Identification of naphthalimide-derivatives as novel PBD-targeted polo-like kinase 1 inhibitors with efficacy in drug-resistant lung cancer cells” (Eur J Med Chem, 2024):
Active and inactive are the calls of the source. The calls are words filed in the database; no cut-off is given here.

Key:
A549/CDDP [1] = test: Disruption of redox homeostasis in human A549/DDP cells assessed as reduction in GSH level at 0 to 9 uM measured after 48 hrs; assay type: functional, cell-based; conditions: dose 0-9 µM
[2] = molecular target: T1, Serine/threonine-protein kinase PLK1 (Homo sapiens, UniProt P53350); test: Binding affinity to recombinant PLK1 (unknown origin) assessed as dissociation constant by SPR analysis
T1 sequence (P53350 whole entry): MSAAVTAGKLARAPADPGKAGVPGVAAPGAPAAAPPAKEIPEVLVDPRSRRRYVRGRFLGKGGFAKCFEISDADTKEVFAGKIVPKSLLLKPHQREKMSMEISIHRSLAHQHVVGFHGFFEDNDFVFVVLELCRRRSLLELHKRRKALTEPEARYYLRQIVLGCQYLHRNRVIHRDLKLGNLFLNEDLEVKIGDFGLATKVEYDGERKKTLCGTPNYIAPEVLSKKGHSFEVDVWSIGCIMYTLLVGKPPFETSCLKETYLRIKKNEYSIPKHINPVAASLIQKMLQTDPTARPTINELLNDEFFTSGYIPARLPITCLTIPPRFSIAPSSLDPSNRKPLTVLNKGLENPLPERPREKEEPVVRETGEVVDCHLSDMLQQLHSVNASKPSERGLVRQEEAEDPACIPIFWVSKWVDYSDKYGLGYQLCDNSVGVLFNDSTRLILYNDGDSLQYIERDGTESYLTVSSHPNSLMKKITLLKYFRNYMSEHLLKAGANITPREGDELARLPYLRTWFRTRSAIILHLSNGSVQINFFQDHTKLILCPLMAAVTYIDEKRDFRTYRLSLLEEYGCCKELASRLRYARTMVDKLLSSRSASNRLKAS

NCI-H460 = test: Anticancer activity against human NCI-H460 cells assessed as inhibition of cell growth incubated for 48 hrs by crystal violet staining based analysis; assay type: functional; conditions: NCI-H460, 48 h
SK-OV-3 = test: Anticancer activity against human SK-OV-3 cells assessed as inhibition of cell growth incubated for 48 hrs by crystal violet staining based analysis; assay type: functional; conditions: SK-OV-3, 48 h
[3] = molecular target: T1, Serine/threonine-protein kinase PLK1; test: Inhibition of PLK1 in human A549/DDP cells assessed as reduction in PLK1 phosphorylation measured after 48 hrs by Western blot analysis; assay type: cell-based
A549 [4] = test: Induction of morphological changes in human A549 cells assessed as increase in mitotic catastrophe in nucleus at 0 to 3 uM measured after 48 hrs by immunofluorescence based laser confocal microscopic analysis; assay type: functional, cell-based; conditions: dose 0-3 µM
A549 [5] = test: Anticancer activity against human A549 cells assessed as inhibition of cell growth incubated for 48 hrs by crystal violet staining based analysis; assay type: functional; conditions: A549, 48 h
[6] = molecular target: T1, Serine/threonine-protein kinase PLK1; test: Binding affinity to recombinant PLK1 (unknown origin) assessed as signal attenuation at 200 uM by NMR analysis
[7] = molecular target: T1, Serine/threonine-protein kinase PLK1; test: Binding affinity to PLK1 in human A549/DDP intact cells assessed as thermal stabilization at 3 uM at 44 to 64 degreeC incubated for 2 hrs by CETSA; assay type: cell-based
[8] = molecular target: T1, Serine/threonine-protein kinase PLK1; test: Binding affinity to FLAG-tagged PLK1 kinase region (unknown origin) transfected in human A549 cells at 10 uM incubated for 1 hr by coimmunoprecipitation-MS analysis; assay type: cell-based
[9] = molecular target: T1, Serine/threonine-protein kinase PLK1; test: Binding affinity to FLAG-tagged PLK1 PBD region (unknown origin) transfected in human A549 cells at 10 uM incubated for 1 hr by coimmunoprecipitation-MS analysis; assay type: cell-based
A549/CDDP [10] = test: Effect on c-Myc protein expression in human A549/DDP cells assessed as effect on protein abundance at 0 to 6 uM measured after 48 hrs by Western blot analysis; assay type: functional, cell-based; conditions: dose 0-6 µM
A549/CDDP [11] = test: Effect on cyclin A2 protein expression in human A549/DDP cells assessed as effect on protein abundance at 0 to 6 uM measured after 48 hrs by Western blot analysis; assay type: functional, cell-based; conditions: dose 0-6 µM
A549/CDDP [12] = test: Effect on CDK2 protein expression in human A549/DDP cells assessed as effect on protein abundance at 0 to 6 uM measured after 48 hrs by Western blot analysis; assay type: functional, cell-based; conditions: dose 0-6 µM
A549/CDDP [13] = test: Effect on p-CDK2 protein expression in human A549/DDP cells assessed as effect on protein abundance at 0 to 6 uM measured after 48 hrs by Western blot analysis; assay type: functional, cell-based; conditions: dose 0-6 µM
A549 [14] = test: Disruption of PLK1-PRC1 protein protein interaction in human A549 cells assessed as reduction in amount of PLK1 captured by PRC1 antibody at 6 uM measured after 48 hrs by Co-IP analysis; assay type: cell-based
A549 [15] = test: Induction of mitotic catastrophe in human A549 cells assessed as appearance of multinucleated cells during mitosis at 1.5 uM measured after 48 hrs by immunostaining based laser confocal microscopic analysis; assay type: functional, cell-based
A549 [16] = test: Induction of mitotic catastrophe in human A549 cells assessed as reduction in PRC1 recruitment by PLK1 in anaphase at 1.5 to 3 uM measured after 48 hrs by immunostaining based laser confocal microscopic analysis; assay type: functional, cell-based; conditions: dose 1.5-3 µM
A549 [17] = test: Induction of mitotic catastrophe in human A549 cells assessed as downregulation of CDK1-cyclin B1 complex protein expression at 1.5 to 6 uM measured after 48 hrs by Western blot analysis; assay type: functional, cell-based; conditions: dose 1.5-6 µM
[18] = Binding affinity to cysteine in PBS assessed as increase in fluorogenic response at 5 uM by UV lamp irradiation/fluorescence spectrophotometer
[19] = GSH reactivity in human A549/DDP cells assessed as increase in fluorescence intensity measured after 48 hrs; assay type: ADME, cell-based; conditions: dose 0-9 µM
A549/CDDP [20] = test: Disruption of redox homeostasis in human A549/DDP cells assessed as induction of cell death; assay type: functional, cell-based
A549/CDDP [21] = test: Antitumor activity against human A549/DDP cells assessed as male BALB/c nude mouse assessed as tumor growth inhibition at 50 mg/kg, ip administered every 2 days for 32 days and measured 3 times a week relative to control; assay type: functional; conditions: 768 h, time 32 day, read-out: TGI
A549/CDDP [22] = test: Antitumor activity against human A549/DDP cells assessed as male BALB/c nude mouse assessed as increase in survival time at 30 to 50 mg/kg, ip administered every 2 days for 32 days; assay type: functional, organism-based; conditions: dose 30-50 mg/kg, time 32.0 day
A549/CDDP [23] = test: Antitumor activity against human A549/DDP cells assessed as male BALB/c nude mouse assessed as reduction in cell proliferation by measuring reduction in […] positive cells in tumor at 30 to 50 mg/kg, ip administered every 2 days for 32 days by immunohistochemistry; assay type: functional, organism-based; conditions: dose 30-50 mg/kg, time 32.0 day
[24] = Toxicity in male BALB/c nude mouse xenografted with human A549/DDP cells assessed as reduction in body weight at 30 to 50 mg/kg, ip administered every 2 days for 32 days and measured 3 times a week; assay type: organism-based, A549/CDDP; conditions: in vivo, 768 h, dose 30-50 mg/kg, time 32 day
[25] = Toxicity in male BALB/c nude mouse xenografted with human A549/DDP cells assessed as change in kidney index at 30 to 50 mg/kg, ip administered every 2 days for 32 days; assay type: organism-based, A549/CDDP; conditions: in vivo, 768 h, dose 30-50 mg/kg, time 32 day
[26] = Toxicity in male BALB/c nude mouse xenografted with human A549/DDP cells assessed as change in lung index at 30 to 50 mg/kg, ip administered every 2 days for 32 days; assay type: organism-based, A549/CDDP; conditions: in vivo, 768 h, dose 30-50 mg/kg, time 32 day
[27] = Toxicity in male BALB/c nude mouse xenografted with human A549/DDP cells assessed as lung damage at 30 to 50 mg/kg, ip administered every 2 days for 32 days by H and E staining based analysis; assay type: organism-based, A549/CDDP; conditions: in vivo, 768 h, dose 30-50 mg/kg, time 32 day
[28] = Toxicity in male BALB/c nude mouse xenografted with human A549/DDP cells assessed as heart damage at 30 to 50 mg/kg, ip administered every 2 days for 32 days by H and E staining based analysis; assay type: organism-based, A549/CDDP; conditions: in vivo, 768 h, dose 30-50 mg/kg, time 32 day
[29] = Toxicity in male BALB/c nude mouse xenografted with human A549/DDP cells assessed as kidney damage at 30 to 50 mg/kg, ip administered every 2 days for 32 days by H and E staining based analysis; assay type: organism-based, A549/CDDP; conditions: in vivo, 768 h, dose 30-50 mg/kg, time 32 day
[30] = Antiproliferative activity against human gefitinib resistant NCI-H1975 cells assessed as inhibition of cell growth incubated for 48 hrs by crystal violet staining based analysis; assay type: functional
[31] = Toxicity in male BALB/c nude mouse xenografted with human gefitinib resistant NCI-H1975 cells assessed as lung damage at 30 mg/kg, po administered every 2 days for 20 days and measured 3 times a week by H and E staining based analysis; assay type: organism-based; conditions: in vivo, 480 h, time 20 day
[32] = Toxicity in male BALB/c nude mouse xenografted with human gefitinib resistant NCI-H1975 cells assessed as kidney damage at 30 mg/kg, po administered every 2 days for 20 days and measured 3 times a week by H and E staining based analysis; assay type: organism-based; conditions: in vivo, 480 h, time 20 day

CN(C)CCN1C(=O)c2cccc3c(S(=O)(=O)NCc4ccc(F)cc4)ccc(c23)C1=O
Activity (A549/CDDP [1]): Active
Kd [2]: 290 nM
IC50 (NCI-H460): 2310 nM
IC50 (SK-OV-3): 2840 nM
inhibition [3]: Active
Activity (A549 [4]): Active
IC50 (A549 [5]): 10600 nM
Activity [6]: Active
Activity [7]: Active
Activity [8]: inactive
Activity [9]: Active
Activity (A549/CDDP [10]): Active
Activity (A549/CDDP [11]): Active
Activity (A549/CDDP [12]): Active
Activity (A549/CDDP [13]): Active
Activity (A549 [14]): Active
Activity (A549 [15]): Active
Activity (A549 [16]): Active
Activity (A549 [17]): Active
Activity [18]: inactive
Drug metabolism [19]: Metabolite_Detected
Activity (A549/CDDP [20]): Active
inhibition in vivo at 50 mg/kg (A549/CDDP [21]): 62%
Activity (A549/CDDP [22]): Active
Activity (A549/CDDP [23]): Active
Activity [24]: Non-Toxic
Activity [25]: Non-Toxic
Activity [26]: Non-Toxic
Activity [27]: Non-Toxic
Activity [28]: Non-Toxic
Activity [29]: Non-Toxic
IC50 [30]: 7830 nM
Activity [31]: Non-Toxic
Activity [32]: Non-Toxic
